In US7427617B2, “Morpoline-bridged indazole derivatives” (Bayer Healthcare AG, priority 2002, dated 2008):

Tested on: primary cortical neurons
Assay: Increase of cGMP in primary cortical neurons
Format: cell-based
Details: 0.1 μM test substance; rat primary cortical neurons; IBMX 100 μM; 20 min at 37° C.; cGMP by EIA
Experimental: Increase of cGMP in Primary Cortical Neurons
Rat embryos (embryonic day 17-19) are decapitated, and the cerebrum is removed and incubated with 5 ml of papain solution and 250 μl of DNAse (papain kit from Cell-System) at 37° C. for 30 min, homogenized using a Pasteur pipette and centrifuged at 1200 rpm for 5 min. The supernatant is removed, the cell pellet resuspended (in 2.7 ml of EBSS [Earl's balanced salt solution], 300 μl of ovomucoid/albumin (conc.) solution, 150 μl of DNAse; papain kit from Cell-System), layered over 5 ml of ovomucoid/albumin solution and centrifuged at 700 rpm for 6 min. The supernatant is removed, the cells are resuspended in cultivation medium (Gibco neurobasal medium, B27 Supplement 50×1 ml/100 ml, 2 mM L-glutamine), counted (approx. 150 000 cells/well) and plated out on poly-D-lysine-coated 96-well plates (Costar) with 200 μl/well. After 6-7 days at 37° C. (5% CO2), the neurons are freed of culture medium and washed once with assay buffer (154 mM NaCl, 5.6 mM KCl, 2.3 mM CaCl22H2O, 1 mM MgCl2, 5.6 mM glucose, 8.6 mM HEPES (4-(2-hydroxyethyl)piperazine-1-ethanesulfonic acid), pH=7.4). […] After incubation at 37° C. for 20 min, the assay buffer is replaced by 200 μl/well of lysis buffer (cGMP EIA RPN 226 from Amersham Pharmacia Biotech), and the cGMP content of the lystates is determined using an EIA assay kit.

For `Nc1nc(-c2nn(Cc3ccccc3F)c3ccccc23)ncc1N1C2CCCC1COC2` [Example 1, 2-[1-(2-Fluorobenzyl)-1H-indazol-3-yl]-5-(3-oxa-9-azabicyclo[3.3.1]non-9-yl)-4pyrimidinylamine], the “increase in cGMP” value was “statistically significant increase in cGMP”.
